Source: patent publication US20260167623A1 (NIKANG THERAPEUTICS, INC., priority 2022, published 2026)
pIC50: −log10 of the molar value.

Tests used:
CDK2 [1] = biological target: T1, CDK2 (Homo sapiens, UniProt P24941); experiment: High-throughput HTRF measurement of cellular endogenous CDK2 level (degradation, DC50/Dmax) in OVCAR3 cells, 6 h; assay type: cell-based; conditions: 6 h compound treatment, HTRF total CDK2, read-out: DC50_OVCAR3_6h
T1 construct: High-Throughput Measurement of Cellular Endogenous CDK2; endogenous in cells; host or cells: OVCAR3
Summary of the method: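 OVCAR3 cells were treated overnight after seeding with compounds at 0.03–1,000 nM for 6 h, then lysed. Total CDK2 was quantified by HTRF (d2- and Eu-cryptate anti-CDK2 antibodies, […] ratio) after overnight incubation at room temperature. Data normalized to DMSO (0%) and lysis buffer (100% degradation); DC50 from four-parameter logistic fit.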

CDK2 [2] = biological target: T1, CDK2; experiment: Inhibition of CDK2: phospho-Rb (S807/811) HTRF measurement in OVCAR3 cells, 24 h; assay type: cell-based; conditions: 24 h compound treatment, read-out: pRB_OVCAR3_24h
Summary of the method: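 OVCAR3 cells, seeded overnight, were exposed to compounds at 0.3 to 10,000 nM for 24 h, then lysed. Rb S807/811 phosphorylation read by HTRF (665/620 nm ratio) after 4 h detection at room temperature; data normalized to DMSO and IC50 from four-parameter logistic fit.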

Compound `C=Cc1cnc(NC2CCN(S(=O)(=O)c3cccc(N4CCC(CN5CCC(c6ccc7c(N8CCC(=O)NC8=O)nn(C)c7c6)CC5)CC4)c3)CC2)nc1` [Example 208, 1-(1-methyl-6-(1-((1-(3-((4-((5-vinylpyrimidin-2-yl)amino)piperidin-1-yl)sulfonyl)phenyl)piperidin-4-yl)methyl)piperidin-4-yl)-1H-indazol-3-yl)dihydropyrimidine-2,4(1H,3H)-dione] has a DC50 (CDK2 [1]) of 0.001 to 0.01 µM and a pIC50 (CDK2 [2]) of 7.00 to 9.00.

`Cn1c(=O)n(C2CCC(=O)NC2=O)c2cc(F)cc(C3CCN(CC4CCN(c5cc(S(=O)(=O)N6CCC(Nc7ncc(Cl)cn7)CC6)ccc5C#N)CC4)CC3)c21` (centres unmarked) [Example 209, 4-((4-((5-chloropyrimidin-2-yl)amino)piperidin-1-yl)sulfonyl)-2-(4-((4-(1-(2,6-dioxopiperidin-3-yl)-6-fluoro-3-methyl-2-oxo-2,3-dihydro-1H-benzo[d]imidazol-4-yl)piperidin-1-yl)methyl)piperidin-1-yl)benzonitrile] showed a DC50 (CDK2 [1]) of 0.01 to 0.1 µM and a pIC50 (CDK2 [2]) of 7.00 to 9.00.

Compound `Cn1nc(-n2ccc(=O)[nH]c2=O)c2ccc(C3CCN(CC4CCN(c5cccc(S(=O)(=O)N6CCC(Nc7ncc(C(F)(F)F)cn7)CC6)c5)CC4)CC3)cc21` [Example 211, 1-(1-methyl-6-(1-((1-(3-((4-((5-(trifluoromethyl)pyrimidin-2-yl)amino)piperidin-1-yl)sulfonyl)phenyl)piperidin-4-yl)methyl)piperidin-4-yl)-1H-indazol-3-yl)pyrimidine-2,4(1H,3H)-dione] has a DC50 (CDK2 [1]) of 1 to 5 µM and a pIC50 (CDK2 [2]) of 7.00 to 9.00.

Compound `Cn1nc(N2CCC(=O)NC2=O)c2ccc(C3CCN(CC4(O)CCN(c5cc(S(=O)(=O)N6CCC(Nc7ncc(Cl)cn7)CC6)ccc5C#N)CC4)CC3)cc21` [Example 214, 4-((4-((5-chloropyrimidin-2-yl)amino)piperidin-1-yl)sulfonyl)-2-(4-((4-(3-(2,4-dioxotetrahydropyrimidin-1(2H)-yl)-1-methyl-1H-indazol-6-yl)piperidin-1-yl)methyl)-4-hydroxypiperidin-1-yl)benzonitrile] has a DC50 (CDK2 [1]) of 0.01 to 0.1 µM and a pIC50 (CDK2 [2]) of 7.00 to 9.00.

In the case of `Cn1c(=O)n(C2CCC(=O)NC2=O)c2ccc(F)c(C3CCN(CC4CCN(c5cc(S(=O)(=O)N6CCC(Nc7ncc(Cl)cn7)CC6)ccc5C#N)CC4)CC3)c21` (centres unmarked) [Example 216, 4-((4-((5-chloropyrimidin-2-yl)amino)piperidin-1-yl)sulfonyl)-2-(4-((4-(1-(2,6-dioxopiperidin-3-yl)-5-fluoro-3-methyl-2-oxo-2,3-dihydro-1H-benzo[d]imidazol-4-yl)piperidin-1-yl)methyl)piperidin-1-yl)benzonitrile], the DC50 (CDK2 [1]) was 0.01 to 0.1 µM and the pIC50 (CDK2 [2]) was 7.00 to 9.00.

Work on `Cn1c(=O)n(C2CCC(=O)NC2=O)c2cccc(N3CCN(CC4CCN(c5cc(S(=O)(=O)N6CCC(Nc7ncc(C(F)(F)F)cn7)CC6)ccc5C#N)CC4)CC3)c21` (centres unmarked) [Example 217, 2-(4-((4-(1-(2,6-dioxopiperidin-3-yl)-3-methyl-2-oxo-2,3-dihydro-1H-benzo[d]imidazol-4-yl)piperazin-1-yl)methyl)piperidin-1-yl)-4-((4-((5-(trifluoromethyl)pyrimidin-2-yl)amino)piperidin-1-yl)sulfonyl)benzonitrile] yielded a DC50 (CDK2 [1]) of 0.01 to 0.1 µM and a pIC50 (CDK2 [2]) of 7.00 to 9.00.

`Cn1c(=O)n(C2CCC(=O)NC2=O)c2c(F)ccc(C3CCN(CC4CCN(c5cc(S(=O)(=O)N6CCC(Nc7ncc(Cl)cn7)CC6)ccc5C#N)CC4)CC3)c21` (centres unmarked) [Example 220, 4-((4-((5-chloropyrimidin-2-yl)amino)piperidin-1-yl)sulfonyl)-2-(4-((4-(1-(2,6-dioxopiperidin-3-yl)-7-fluoro-3-methyl-2-oxo-2,3-dihydro-1H-benzo[d]imidazol-4-yl)piperidin-1-yl)methyl)piperidin-1-yl)benzonitrile] was tested, and the DC50 (CDK2 [1]) was 0.01 to 0.1 µM and the pIC50 (CDK2 [2]) was 7.00 to 9.00.

With `O=C1CCN(c2noc3cc(C4CCN(CC5CCN(c6cccc(S(=O)(=O)N7CCC(Nc8ncc(Cl)cn8)CC7)c6)CC5)CC4)ccc23)C(=O)N1` [Example 221, 1-(6-(1-((1-(3-((4-((5-chloropyrimidin-2-yl)amino)piperidin-1-yl)sulfonyl)phenyl)piperidin-4-yl)methyl)piperidin-4-yl)benzo[d]isoxazol-3-yl)dihydropyrimidine-2,4(1H,3H)-dione] the DC50 (CDK2 [1]) was 0.001 to 0.01 µM and the pIC50 (CDK2 [2]) was 7.00 to 9.00.

For `O=C1CCN(c2noc3cc(C4CCN(CC5CCN(c6cccc(S(=O)(=O)N7CCC(Nc8ncc(C(F)(F)F)cn8)CC7)c6)CC5)CC4)ccc23)C(=O)N1` [Example 222, 1-(6-(1-((1-(3-((4-((5-(trifluoromethyl)pyrimidin-2-yl)amino)piperidin-1-yl)sulfonyl)phenyl)piperidin-4-yl)methyl)piperidin-4-yl)benzo[d]isoxazol-3-yl)dihydropyrimidine-2,4(1H,3H)-dione], the DC50 (CDK2 [1]) was 0.001 to 0.01 µM and the pIC50 (CDK2 [2]) was 7.00 to 9.00.

`Cn1nc(N2CCC(=O)NC2=O)c2ccc(C3CCC(CN4CCN(c5cccc(S(=O)(=O)N6CCC(Nc7ncc(Cl)cn7)CC6)c5)CC4)CC3)cc21` (centres unmarked) [Example 224, 1-(6-(4-((4-(3-((4-((5-chloropyrimidin-2-yl)amino)piperidin-1-yl)sulfonyl)phenyl)piperazin-1-yl)methyl)cyclohexyl)-1-methyl-1H-indazol-3-yl)dihydropyrimidine-2,4(1H,3H)-dione] showed a DC50 (CDK2 [1]) of 0.01 to 0.1 µM and a pIC50 (CDK2 [2]) of 7.00 to 9.00.

For `Cn1nc(N2CCC(=O)NC2=O)c2ccc(C3CCN(CC#Cc4cccc(S(=O)(=O)N5CCC(Nc6ncc(Cl)cn6)CC5)c4)CC3)cc21` [Example 226, 1-(6-(1-(3-(3-((4-((5-chloropyrimidin-2-yl)amino)piperidin-1-yl)sulfonyl)phenyl)prop-2-yn-1-yl)piperidin-4-yl)-1-methyl-1H-indazol-3-yl)dihydropyrimidine-2,4(1H,3H)-dione], the DC50 (CDK2 [1]) was 0.01 to 0.1 µM and the pIC50 (CDK2 [2]) was 6.30 to 7.00.

With `Cn1nc(N2CCC(=O)NC2=O)c2ccc(C3CCN(CC4CCN(c5cccc(S(=O)(=O)N6CCC(Nc7ncc(Cl)cn7)CC6)c5)C(=O)C4)CC3)cc21` (centres unmarked) [Example 234, 1-(6-(1-((1-(3-((4-((5-chloropyrimidin-2-yl)amino)piperidin-1-yl)sulfonyl)phenyl)-2-oxopiperidin-4-yl)methyl)piperidin-4-yl)-1-methyl-1H-indazol-3-yl)dihydropyrimidine-2,4(1H,3H)-dione] the DC50 (CDK2 [1]) was 0.001 to 0.01 µM and the pIC50 (CDK2 [2]) was 7.00 to 9.00.

In the case of `Cn1nc(N2CCC(=O)NC2=O)c2ccc(C3CCC(CN4CCC(c5cccc(S(=O)(=O)N6CCC(Nc7ncc(C(F)(F)F)cn7)CC6)c5)CC4)CC3)cc21` (centres unmarked) [Example 238, 1-(1-methyl-6-(4-((4-(3-((4-((5-(trifluoromethyl)pyrimidin-2-yl)amino)piperidin-1-yl)sulfonyl)phenyl)piperidin-1-yl)methyl)cyclohexyl)-1H-indazol-3-yl)dihydropyrimidine-2,4(1H,3H)-dione], the DC50 (CDK2 [1]) was 0.01 to 0.1 µM and the pIC50 (CDK2 [2]) was 7.00 to 9.00.

Work on `Cn1nc(N2CCC(=S)NC2=O)c2ccc(C3CCN(CC4CCN(c5cccc(S(=O)(=O)N6CCC(Nc7ncc(Cl)cn7)CC6)c5)CC4)CC3)cc21` [Example 239, 1-(6-(1-((1-(3-((4-((5-chloropyrimidin-2-yl)amino)piperidin-1-yl)sulfonyl)phenyl)piperidin-4-yl)methyl)piperidin-4-yl)-1-methyl-1H-indazol-3-yl)-4-thioxotetrahydropyrimidin-2(1H)-one] yielded a DC50 (CDK2 [1]) of 0.01 to 0.1 µM and a pIC50 (CDK2 [2]) of 6.30 to 7.00.

For `Cn1nc(N2CCC(=O)NC2=O)c2ccc(C3CCN(Cc4ccc(S(=O)(=O)N5CCC(Nc6ncc(OC(F)F)cn6)CC5)cc4)CC3)cc21` [Example 241, 1-(6-(1-(4-((4-((5-(difluoromethoxy)pyrimidin-2-yl)amino)piperidin-1-yl)sulfonyl)benzyl)piperidin-4-yl)-1-methyl-1H-indazol-3-yl)dihydropyrimidine-2,4(1H,3H)-dione], the DC50 (CDK2 [1]) was 0.001 to 0.01 µM and the pIC50 (CDK2 [2]) was 7.00 to 9.00.

Work on `CC(C)c1cnc(NC2CCN(S(=O)(=O)c3cccc(N4CCC(CN5CCC(c6ccc7c(N8CCC(=O)NC8=O)nn(C)c7c6)CC5)CC4)c3)CC2)nc1` [Example 244, 1-(6-(1-((1-(3-((4-((5-isopropylpyrimidin-2-yl)amino)piperidin-1-yl)sulfonyl)phenyl)piperidin-4-yl)methyl)piperidin-4-yl)-1-methyl-1H-indazol-3-yl)dihydropyrimidine-2,4(1H,3H)-dione] yielded a DC50 (CDK2 [1]) of 0.001 to 0.01 µM and a pIC50 (CDK2 [2]) of 7.00 to 9.00.

Work on `O=C1CCC(N2Cc3cc(N4CCC(CN5CCN(c6cccc(S(=O)(=O)N7CCC(Nc8ncc(Cl)cn8)CC7)c6)CC5)CC4)ccc3C2=O)C(=O)N1` (centres unmarked) [Example 247, 3-(5-(4-((4-(3-((4-((5-chloropyrimidin-2-yl)amino)piperidin-1-yl)sulfonyl)phenyl)piperazin-1-yl)methyl)piperidin-1-yl)-1-oxoisoindolin-2-yl)piperidine-2,6-dione] yielded a DC50 (CDK2 [1]) of 0.01 to 0.1 µM and a pIC50 (CDK2 [2]) of 7.00 to 9.00.

`O=C1CCC(N2Cc3cc(N4CCC(CN5CCN(c6cccc(S(=O)(=O)N7CCC(Nc8ncc(C(F)(F)F)cn8)CC7)c6)CC5)CC4)ccc3C2=O)C(=O)N1` (centres unmarked) [Example 248, 3-(1-oxo-5-(4-((4-(3-((4-((5-(trifluoromethyl)pyrimidin-2-yl)amino)piperidin-1-yl)sulfonyl)phenyl)piperazin-1-yl)methyl)piperidin-1-yl)isoindolin-2-yl)piperidine-2,6-dione] showed a DC50 (CDK2 [1]) of 1 to 5 µM and a pIC50 (CDK2 [2]) of 7.00 to 9.00.

`O=C1CCC(c2csc3cc(C4CCN(CC5CCN(c6cccc(S(=O)(=O)N7CCC(Nc8ncc(C(F)(F)F)cn8)CC7)c6)CC5)CC4)ccc23)C(=O)N1` (centres unmarked) [Example 250, 3-(6-(1-((1-(3-((4-((5-(trifluoromethyl)pyrimidin-2-yl)amino)piperidin-1-yl)sulfonyl)phenyl)piperidin-4-yl)methyl)piperidin-4-yl)benzo[b]thiophen-3-yl)piperidine-2,6-dione] was tested, and the DC50 (CDK2 [1]) was 0.01 to 0.1 µM and the pIC50 (CDK2 [2]) was 7.00 to 9.00.
